Measured values published in article PMC3749181, “Rapid Identification of Antifungal Compounds against Exserohilum rostratum Using High Throughput Drug Repurposing Screens” (PLoS ONE, 2013).

The molecules below were run on SH-SY5Y cells (assay: SH-SY5Y cytotoxicity counter-screen (ATP content assay)). Details: Homo sapiens, SH-SY5Y; Table S1; Inact. = no significant activity at the highest compound concentration (46 µM).
Assay type: cell-based, Human
Procedure: Human neuroblastoma SH-SY5Y cell line (Catalog No. CRL-2266) was purchased from ATCC (Manassas, VA). SH-SY5Y cell line was cultured in 175-cm^2 tissue culture flasks (Costar, Cambridge, MA) with 30 ml of growth medium at 37°C in a 5% CO2 humidified atmosphere. Growth medium was made with Dulbecco's Modified Eagle Medium: Nutrient Mixture F-12 with 10% fetal bovine serum (FBS). Growth medium was replaced every other day and cells were passed at 75% confluence.
(§1) The ATPLite assay kit, consisting of luciferase/luciferin and detergent, was used to quantitate cellular ATP levels as a marker for cell viability (Table 1). For assay development, hyphal fragments or conidia in PBS were plated in a seeding density of 3,750, 7,500 and 15,000 cellular particles/well with a final volume of 5 µl/well using the Multidrop-Combi dispenser in white 1536-well plates. Conidia or hyphae fragments were incubated for 24 h at 37°C in a 5% CO2 humidified atmosphere. ATPLite detection reagents were added at 4 µl/well. The assay plates were incubated at room temperature for 15 minutes before reading luminescence intensity on a ViewLux plate reader (Perkin Elmer, Waltham, MA). Conidia suspended in RPMI medium were inoculated at concentrations of 62.5, 125 and 250 conidia/well with a final volume of 5 µl/well in white 1536-well plates. The conidia assay was developed and optimized in the same way as the hyphal assay.
Two small known compound libraries including the LOPAC (1280 compounds) and approved drugs (4096 compounds) were screened in parallel using the above optimized assays for hyphae and conidia in 1536-well plates (Fig. 4). […] A mammalian SH-SY5Y cell line was used in parallel as a counter-screen with the same ATP content assay kit to assess the specificity of these compounds for E. rostratum.

| Molecule | IC50 [nM] |
| --- | --- |
| c1ccc(-c2ccc(C(c3ccccc3)n3ccnc3)cc2)cc1 (stereo not drawn) [Bifonazole] | 46900 |

Same assay, conditions: Table 2, SH-SY5Y; 46 µM Amphotericin B = 100%; inact. = no significant activity at 46 µM

| Molecule | SH-SY5Y % Max. Resp. |
| --- | --- |
| Oc1ccc(Cl)cc1Sc1cc(Cl)ccc1O [Fenticlor] | inact. |
| CO/C=C(/C(=O)OC)c1ccccc1Oc1cc(Oc2ccccc2C#N)ncn1 [Azoxystrobin] | inact. |
| Cc1ccc2c(Br)cc(Br)c(O)c2n1 [Broquinaldol] | inact. |
| CCCCCCC(=O)CCCCCC/C=C/C[C@@H](O)[C@H](O)[C@@](N)(CO)C(=O)O [Myriocin] | inact. |
| CC(C)(C)c1cc(/C=C(\C#N)C(N)=S)cc(C(C)(C)C)c1O [Tyrphostin AG 879] | inact. |
| C=CCOC(Cn1ccnc1)c1ccc(Cl)cc1Cl (stereo not drawn) [Enilconazole] | inact. |
| Oc1c(I)cc(I)c2cccnc12 [Iodoquinol] | 58% |
| O=C(Nc1ccc(Br)cc1)c1cc(Br)cc(Br)c1O [Tribromosalan] | inact. |
| Phenylmercuric borate | 99% |

Same assay, conditions: Table 2, SH-SY5Y; inact. = no significant activity at 46 µM

| Molecule | SH-SY5Y % Max. Resp. |
| --- | --- |
| Oc1ccc(Cl)cc1Sc1cc(Cl)ccc1O [Fenticlor] | inact. |
| CO/C=C(/C(=O)OC)c1ccccc1Oc1cc(Oc2ccccc2C#N)ncn1 [Azoxystrobin] | inact. |
| Cc1ccc2c(Br)cc(Br)c(O)c2n1 [Broquinaldol] | inact. |
| CCCCCCC(=O)CCCCCC/C=C/C[C@@H](O)[C@H](O)[C@@](N)(CO)C(=O)O [Myriocin] | inact. |
| CC(C)(C)c1cc(/C=C(\C#N)C(N)=S)cc(C(C)(C)C)c1O [Tyrphostin AG 879] | inact. |
| C=CCOC(Cn1ccnc1)c1ccc(Cl)cc1Cl (stereo not drawn) [Enilconazole] | inact. |
| Oc1c(I)cc(I)c2cccnc12 [Iodoquinol] | 26.3% |
| O=C(Nc1ccc(Br)cc1)c1cc(Br)cc(Br)c1O [Tribromosalan] | inact. |
| Phenylmercuric borate | 0.417% |

Same assay, conditions: Table S1; 46 µM Amphotericin B = 100%; Inact. = no significant activity at 46 µM

| Molecule | SH-SY5Y % M. Res. [%] |
| --- | --- |
| c1ccc(-c2ccc(C(c3ccccc3)n3ccnc3)cc2)cc1 (stereo not drawn) [Bifonazole] | 47 |

The molecules below were run on E. rostratum conidia (assay: conidia growth inhibition ATP content assay (RPMI, 1536-well)). Details: Exserohilum rostratum, 24 h, Table 2; 24 h; inact. = no significant activity at the highest compound concentration (46 µM); read-out: Conidia IC50.
Assay type: cell-based, Exserohilum rostratum
Procedure: (§2) Conidia and hyphae of E. rostratum were obtained as described by Richard et al., with the following modifications. Briefly, conidia were harvested from Potato Dextrose Agar (PDA) cultured media with 0.05% Tween 80, and the conidial suspension was filtered using a Cell Strainer (100 µm, BD Falcon REF 352340). After centrifugation at 700g for 10 min, the suspension was decanted and conidia were resuspended at 1×10^5 per ml in RPMI and counted in a hemocytometer. Hyphae were harvested from yeast extract peptone dextrose (YPD) culture media with 0.05% Tween 80. Hyphal fragments were sized by vortexing 15 sec twice with 0.4 mm glassbeads, and the hyphae suspension was filtered by cheese cloth twice. […] To normalize concentrations of hyphal fragments for batch to batch consistency, carbohydrate analysis was performed by a phenol-sulfuric acid method as previously described. The final stock concentration of hyphae was adjusted to 1.0 (OD490) per 100 µl.
as §1
(§3) The LOPAC library (Sigma-Aldrich) has been extensively used for HTS assay validations, [18]. The NIH Chemical Genomics Center Pharmaceutical (NPC) collection was constructed in-house through a combined effort of compound purchasing and custom synthesis and recently expanded to 4096 compounds. […] 2.5 µl/well PBS was dispensed into 1536-well plates using a Multidrop-Combi dispenser. Compound in DMSO solution was transferred in a volume of 23 nl/well using a NX-TR pintool station (WAKO Scientific Solutions, San Diego, CA). This additional PBS step for compound addition was designed to prevent the potential fungal contamination of compound libraries. The hyphal fragments in PBS were then added at 2.5 µl/well for a final seeding density of 15,000 hyphal fragments/well using the Multidrop-Combi dispenser. The final compound concentration was 46 µM in the primary screen. The assay plates were incubated for 24 h at 30°C before the detection of cellular viability with the ATP content assay. Screen of conidia was performed in a similar way except that PBS was replaced with RPMI medium and conidia were plated for a final seeding density of 250 conidia/well.
(§4) The primary screen data and curve fitting were analyzed using software developed internally at the NIH Chemical Genomics Center (NCGC). Total signals for cellular viability (100% cellular viability) were calculated from the wells with DMSO solvent and the complete cell killing (0% cellular viability) was calculated from 46 µM amphotericin B treated wells. […] All values were expressed as the mean +/− SD (n≥3).

| Molecule | IC50 [nM] |
| --- | --- |
| Cc1ccc2c(Br)cc(Br)c(O)c2n1 [Broquinaldol] | 7750 |
| CCCCCCC(=O)CCCCCC/C=C/C[C@@H](O)[C@H](O)[C@@](N)(CO)C(=O)O [Myriocin] | 13600 |
| CC(C)(C)c1cc(/C=C(\C#N)C(N)=S)cc(C(C)(C)C)c1O [Tyrphostin AG 879] | 6160 |
| C=CCOC(Cn1ccnc1)c1ccc(Cl)cc1Cl (stereo not drawn) [Enilconazole] | 1720 |
| Oc1c(I)cc(I)c2cccnc12 [Iodoquinol] | 2750 |

Same assay, conditions: Exserohilum rostratum, 24 h, read-out: Conidia IC50

| Molecule | IC50 [nM] |
| --- | --- |
| Oc1ccc(Cl)cc1Sc1cc(Cl)ccc1O [Fenticlor] | 5720 |

Same assay, conditions: Exserohilum rostratum, Table S1; Inact. = no significant activity at the highest compound concentration (46 µM); read-out: Conidia IC50

| Molecule | IC50 [nM] |
| --- | --- |
| c1ccc(-c2ccc(C(c3ccccc3)n3ccnc3)cc2)cc1 (stereo not drawn) [Bifonazole] | 9350 |

Same assay, conditions: Exserohilum rostratum; Table 2; 46 µM Amphotericin B = 100%; inact. = no significant activity at 46 µM; read-out: Conidia % Max. Resp.

| Molecule | Emax [%] |
| --- | --- |
| Oc1ccc(Cl)cc1Sc1cc(Cl)ccc1O [Fenticlor] | 107 |
| Cc1ccc2c(Br)cc(Br)c(O)c2n1 [Broquinaldol] | 101 |
| CCCCCCC(=O)CCCCCC/C=C/C[C@@H](O)[C@H](O)[C@@](N)(CO)C(=O)O [Myriocin] | 92 |
| CC(C)(C)c1cc(/C=C(\C#N)C(N)=S)cc(C(C)(C)C)c1O [Tyrphostin AG 879] | 92 |
| C=CCOC(Cn1ccnc1)c1ccc(Cl)cc1Cl (stereo not drawn) [Enilconazole] | 102 |
| Oc1c(I)cc(I)c2cccnc12 [Iodoquinol] | 99 |

Same assay, conditions: Exserohilum rostratum; Table S1; 46 µM Amphotericin B = 100%; Inact. = no significant activity at 46 µM; read-out: Conidia % M. Res.

| Molecule | Emax [%] |
| --- | --- |
| c1ccc(-c2ccc(C(c3ccccc3)n3ccnc3)cc2)cc1 (stereo not drawn) [Bifonazole] | 64 |

Same assay, conditions: Table 2; 46 µM Amphotericin B = 100%; inact. = no significant activity at 46 µM

| Molecule | Conidia % Max. Resp. [%] |
| --- | --- |
| CO/C=C(/C(=O)OC)c1ccccc1Oc1cc(Oc2ccccc2C#N)ncn1 [Azoxystrobin] | 83 |
| O=C(Nc1ccc(Br)cc1)c1cc(Br)cc(Br)c1O [Tribromosalan] | 99 |
| Phenylmercuric borate | 103 |

Same assay, conditions: Table 2; 24 h; inact. = no significant activity at the highest compound concentration (46 µM); read-out: Conidia IC50

| Molecule | IC50 [nM] |
| --- | --- |
| CO/C=C(/C(=O)OC)c1ccccc1Oc1cc(Oc2ccccc2C#N)ncn1 [Azoxystrobin] | 304 |
| O=C(Nc1ccc(Br)cc1)c1cc(Br)cc(Br)c1O [Tribromosalan] | 1930 |
| Phenylmercuric borate | 149 |

The molecules below were run on E. rostratum hyphal fragments (assay: hyphal fragment fungicidal ATP content assay (PBS, 1536-well)). Details: Exserohilum rostratum; Table 2; 46 µM Amphotericin B = 100%; inact. = no significant activity in the primary screen; read-out: Hyphae % Max. Resp.
Assay type: cell-based, Exserohilum rostratum
Procedure: as §2, §1, §3, §4

| Molecule | Emax [%] |
| --- | --- |
| CCCCCCC(=O)CCCCCC/C=C/C[C@@H](O)[C@H](O)[C@@](N)(CO)C(=O)O [Myriocin] | 81 |
| C=CCOC(Cn1ccnc1)c1ccc(Cl)cc1Cl (stereo not drawn) [Enilconazole] | 73 |

Same assay, conditions: Exserohilum rostratum; Table 2; 24 h; inact. = no significant activity in the primary screen; read-out: Hyphae IC50

| Molecule | IC50 [nM] |
| --- | --- |
| CCCCCCC(=O)CCCCCC/C=C/C[C@@H](O)[C@H](O)[C@@](N)(CO)C(=O)O [Myriocin] | 2750 |
| C=CCOC(Cn1ccnc1)c1ccc(Cl)cc1Cl (stereo not drawn) [Enilconazole] | 312 |

Same assay, conditions: Exserohilum rostratum; Table S1; 46 µM Amphotericin B = 100%; Inact. = no significant activity in the primary screen; read-out: Hyphae % M. Res.

| Molecule | Emax [%] |
| --- | --- |
| c1ccc(-c2ccc(C(c3ccccc3)n3ccnc3)cc2)cc1 (stereo not drawn) [Bifonazole] | 74 |

Same assay, conditions: Exserohilum rostratum; Table S1; Inact. = no significant activity in the primary screen; read-out: Hyphae IC50

| Molecule | IC50 [nM] |
| --- | --- |
| c1ccc(-c2ccc(C(c3ccccc3)n3ccnc3)cc2)cc1 (stereo not drawn) [Bifonazole] | 11800 |

Same assay, conditions: Table 2; 46 µM Amphotericin B = 100%; inact. = no significant activity in the primary screen

| Molecule | Hyphae % Max. Resp. |
| --- | --- |
| Oc1ccc(Cl)cc1Sc1cc(Cl)ccc1O [Fenticlor] | inact. |
| CO/C=C(/C(=O)OC)c1ccccc1Oc1cc(Oc2ccccc2C#N)ncn1 [Azoxystrobin] | 81% |
| Cc1ccc2c(Br)cc(Br)c(O)c2n1 [Broquinaldol] | inact. |
| CC(C)(C)c1cc(/C=C(\C#N)C(N)=S)cc(C(C)(C)C)c1O [Tyrphostin AG 879] | inact. |
| Oc1c(I)cc(I)c2cccnc12 [Iodoquinol] | inact. |
| O=C(Nc1ccc(Br)cc1)c1cc(Br)cc(Br)c1O [Tribromosalan] | inact. |
| Phenylmercuric borate | inact. |

Same assay, conditions: Table 2; 24 h; inact. = no significant activity in the primary screen

| Molecule | Hyphae IC50 |
| --- | --- |
| Oc1ccc(Cl)cc1Sc1cc(Cl)ccc1O [Fenticlor] | inact. |
| Cc1ccc2c(Br)cc(Br)c(O)c2n1 [Broquinaldol] | inact. |
| CC(C)(C)c1cc(/C=C(\C#N)C(N)=S)cc(C(C)(C)C)c1O [Tyrphostin AG 879] | inact. |
| Oc1c(I)cc(I)c2cccnc12 [Iodoquinol] | inact. |
| O=C(Nc1ccc(Br)cc1)c1cc(Br)cc(Br)c1O [Tribromosalan] | inact. |
| Phenylmercuric borate | inact. |

Same assay, conditions: Table 2; 24 h; inact. = no significant activity in the primary screen; read-out: Hyphae IC50

| Molecule | IC50 [nM] |
| --- | --- |
| CO/C=C(/C(=O)OC)c1ccccc1Oc1cc(Oc2ccccc2C#N)ncn1 [Azoxystrobin] | 198 |
